This is an account of results in article PMC6079455, “Discovery of Novel Caeridins from the Skin Secretion of the Australian White's Tree Frog, Litoria caerulea” (International Journal of Genomics, 2018).

For assay [1], the system named is rat urinary bladder smooth muscle. Description: Rat urinary bladder smooth muscle test. Particulars: 10^−11 to 10^−6 M. As to the method:
(§1) Female Wistar rats (250–300 g) were euthanized by CO2 asphyxiation followed by cervical dislocation under appropriate Home Office (UK) animal licenses. Full urinary bladder and ileum were carefully removed from the abdomen, then placed in cold Kreb's solution (118 mM NaCl, 4.7 mM KCl, 25 mM NaHCO3, 1.15 mM NaH2PO4, 2.5 mM CaCl2, 1.1 mM MgCl2, and 5.6 mM glucose), equilibrated with a carbogen mixture (95% O2, 5% CO2). The prepared smooth muscles linked with transducers were placed in 2 ml capacity organ baths with Kreb's solution flowing through at 2 ml/min and maintained at 37°C with constant bubbling of carbogen gas mixture (95% O2, […]) and equilibrated for 1 h prior to analysis. Then the viability of these smooth muscle preparations was tested by 60 mM KCl. Caeridins were tested at sequential molar concentrations in the range from 10^−6 M to 10^−11 M. Dose-response curves were depicted for each Caeridin on individual smooth muscle preparations (n = 5). Changes in tension of the smooth muscle preparations were detected by pressure transducers connected to a PowerLab System (ADInstruments Pty Ltd.). Data were recorded and calculated to obtain the means of responses and standard error of means (SEM). The dose-response curve of each Caeridin was established using best-fit algorithms through the data analysis package provided by GraphPad Prism (Version 6.0; GraphPad Software Inc., San Diego, CA, USA), and the comparative EC50 value for each peptide was depicted.

Another assay deals with rat ileum smooth muscle. Description: Rat ileum smooth muscle test. The settings on record: 10^−11 to 10^−6 M. As to the method:
as §1

In another assay the test system is S. aureus NCTC10788. As to the kind of experiment: Antimicrobial test (broth microdilution). The format is cell-based, Staphylococcus aureus. As to the method: The antimicrobial activities were tested by the broth microdilution method and evaluated by the determination of MIC values against different tested microorganisms, the Gram-positive bacteria, S. aureus (NCTC 10788), E. faecalis (NCTC12697), and MRSA (NCTC 12493); the Gram-negative bacterium, E. coli (NCTC 10418); and the yeast, C. albicans (NCYC 1467). The microorganisms were cultured to their log phase in MHB and diluted to 5 × 10^5 CFU/ml then subsequently treated with peptide solutions of gradient concentrations. After incubation at 37°C overnight, the growth of microorganisms was detected at a wavelength of 550 nm using a Synergy HT plate reader (Biolise BioTek ELx808, Winooski, VT, USA). The MICs were determined as the lowest concentration of peptide where […].
A general note: Dilution methods test growth across graded concentrations, often in twofold steps.

Ends that are not written are not given here.

One may read the MBC as the lowest tested concentration that kills the bacteria rather than only halting them. As a reminder, the MIC is the lowest concentration that inhibits growth of the organism. For GLFDIVGKLLGGLGL-NH2 [Caeridin-a1], the “smooth muscle activity (rat bladder)” value in assay [1] is “did not show any smooth muscle activities”. In addition, the “smooth muscle activity (rat ileum)” value with rat ileum smooth muscle is reported as “did not show any smooth muscle activities”. Moreover, in the assay with S. aureus NCTC10788, the minimum bactericidal concentration (MBC) stood at 16 µM. In addition, the MIC with S. aureus NCTC10788 (MHB, 5 × 10^5 CFU/ml, 37°C overnight, 550 nm) is 8 µM.
